Read-outs that look alike come from different tables or passages of the source.
Tests used:
FLT-3 = target: T1, FLT-3 (Homo sapiens, UniProt P36888); assay: FLT-3 inhibition assay, radiometric filter-binding; type: biochemical
T1 sequence (P36888 27-993): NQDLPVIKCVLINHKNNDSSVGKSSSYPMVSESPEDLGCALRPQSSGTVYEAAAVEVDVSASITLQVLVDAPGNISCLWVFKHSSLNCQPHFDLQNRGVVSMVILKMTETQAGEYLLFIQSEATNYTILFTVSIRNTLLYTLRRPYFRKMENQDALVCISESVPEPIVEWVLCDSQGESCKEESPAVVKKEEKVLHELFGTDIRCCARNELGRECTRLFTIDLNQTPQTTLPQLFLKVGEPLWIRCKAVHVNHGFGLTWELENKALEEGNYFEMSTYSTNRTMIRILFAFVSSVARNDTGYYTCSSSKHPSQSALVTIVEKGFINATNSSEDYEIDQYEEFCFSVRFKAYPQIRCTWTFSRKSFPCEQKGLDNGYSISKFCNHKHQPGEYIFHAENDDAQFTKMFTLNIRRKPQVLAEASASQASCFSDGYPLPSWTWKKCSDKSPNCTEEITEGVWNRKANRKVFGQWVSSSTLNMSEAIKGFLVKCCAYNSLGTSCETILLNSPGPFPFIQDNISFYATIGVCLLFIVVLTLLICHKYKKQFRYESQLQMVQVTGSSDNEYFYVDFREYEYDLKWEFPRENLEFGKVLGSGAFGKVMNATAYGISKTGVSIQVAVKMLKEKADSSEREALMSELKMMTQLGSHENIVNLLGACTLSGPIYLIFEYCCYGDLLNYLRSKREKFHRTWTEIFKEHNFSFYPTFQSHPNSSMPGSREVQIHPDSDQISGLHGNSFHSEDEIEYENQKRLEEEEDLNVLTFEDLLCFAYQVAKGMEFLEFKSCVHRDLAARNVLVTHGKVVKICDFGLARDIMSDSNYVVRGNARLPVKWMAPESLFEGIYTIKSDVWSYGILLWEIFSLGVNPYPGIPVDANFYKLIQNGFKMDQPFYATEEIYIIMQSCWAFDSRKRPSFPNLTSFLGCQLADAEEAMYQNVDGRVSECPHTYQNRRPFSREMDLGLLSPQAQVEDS

JAK3 = target: T2, JAK3 (Homo sapiens, UniProt P52333); assay: biochemical
T2 sequence (P52333 1-1124): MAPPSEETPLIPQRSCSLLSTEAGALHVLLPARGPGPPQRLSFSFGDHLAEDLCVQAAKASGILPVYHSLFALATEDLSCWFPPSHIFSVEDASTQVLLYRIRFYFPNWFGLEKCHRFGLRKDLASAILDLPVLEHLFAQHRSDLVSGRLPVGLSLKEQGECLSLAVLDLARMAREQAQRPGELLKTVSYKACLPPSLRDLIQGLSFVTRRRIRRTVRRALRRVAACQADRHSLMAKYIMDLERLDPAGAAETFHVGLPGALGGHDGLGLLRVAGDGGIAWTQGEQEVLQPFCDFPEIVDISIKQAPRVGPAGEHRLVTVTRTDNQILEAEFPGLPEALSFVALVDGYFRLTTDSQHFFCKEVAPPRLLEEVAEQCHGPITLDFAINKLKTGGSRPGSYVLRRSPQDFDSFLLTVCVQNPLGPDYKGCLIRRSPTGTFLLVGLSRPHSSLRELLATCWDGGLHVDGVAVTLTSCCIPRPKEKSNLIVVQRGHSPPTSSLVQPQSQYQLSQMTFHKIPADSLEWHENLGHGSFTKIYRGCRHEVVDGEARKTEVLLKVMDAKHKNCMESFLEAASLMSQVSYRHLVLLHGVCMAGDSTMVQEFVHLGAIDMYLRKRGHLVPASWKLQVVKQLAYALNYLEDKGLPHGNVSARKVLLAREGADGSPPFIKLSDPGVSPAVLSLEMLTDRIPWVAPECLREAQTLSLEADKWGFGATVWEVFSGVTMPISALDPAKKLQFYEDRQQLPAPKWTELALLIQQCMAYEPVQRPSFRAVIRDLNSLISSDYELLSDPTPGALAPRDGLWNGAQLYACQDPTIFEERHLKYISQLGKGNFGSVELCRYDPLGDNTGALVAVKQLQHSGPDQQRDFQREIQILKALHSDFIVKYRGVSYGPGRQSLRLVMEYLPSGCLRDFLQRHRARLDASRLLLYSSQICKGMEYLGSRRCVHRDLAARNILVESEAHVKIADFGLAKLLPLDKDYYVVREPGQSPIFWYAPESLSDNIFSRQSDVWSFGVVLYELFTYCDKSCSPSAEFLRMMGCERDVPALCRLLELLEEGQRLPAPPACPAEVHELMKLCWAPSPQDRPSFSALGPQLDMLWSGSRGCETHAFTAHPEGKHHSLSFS

Colo205 cells = assay: Analysis of cell proliferation and viability; type: cell-based; details: Homo sapiens, COLO 205, Colo205 cells, read-out: IC50 value

SMILES | Ki (FLT-3; read-out: FLT-3 Ki value) | Ki (JAK3) | IC50 (Colo205 cells; incubated for 96 hours) | Ki (FLT-3) | Ki (JAK3; read-out: JAK3 Ki value) | IC50 (Colo205 cells; incubated for 72 hours)
CCC(=O)Nc1ccc(Sc2nc(Nc3cc(C)n[nH]3)cc(N3CC(C)(OC(C)(C)C)C3)n2)cc1 [Compound 96] | 50 to 150 nM | 10 to 500 nM | ≤ 50 nM |  |  | 
Cc1cc(Nc2cc(N3CC(F)(C4CC4)C3)nc(Sc3ccc4nc(C(F)(F)F)cn4c3)n2)[nH]n1 [Compound 190] |  |  |  | 150 to 1000 nM | 10 to 500 nM | 30 to 200 nM
Cc1cc(Nc2cc(N3CCC3)nc(Sc3ccc(NC(=O)c4ocnc4C)cc3)n2)n[nH]1 [Compound 167] |  | 10 to 500 nM | > 1000 nM | 150 to 1000 nM |  | 
Cc1cc(Nc2cc(N3CCC3)nc(Sc3ccc(NC(=O)c4ccncc4C(F)(F)F)cc3)n2)[nH]n1 [Compound 146] |  | 10 to 500 nM |  | 150 to 1000 nM |  | ≤ 30 nM
Cc1cc(Nc2cc(N3CCC3)nc(Sc3ccc(NC(=O)c4ccc(CN(C)C)cc4)cc3)n2)[nH]n1 [Compound 137] | 50 to 150 nM |  | 50 to 1000 nM |  | 500 to 2000 nM | 
Cc1cc(Nc2cc(N3CC(F)(C4CC4)C3)nc(Sc3ccc4nc(C(F)(F)F)[nH]c4c3)n2)[nH]n1 [Compound 202] |  | ≤ 10 nM |  | ≤ 50 nM |  | 30 to 200 nM
Cc1cc(Nc2cc(N3CCC3)nc(Sc3ccc(N)cc3)n2)[nH]n1 [Compound 108] | ≤ 50 nM |  | > 1000 nM |  | ≤ 10 nM | 
Cc1cc(Nc2cc(N3CCC3)nc(Sc3ccc(NC(=O)c4ccc(F)cc4F)cc3)n2)n[nH]1 [Compound 44] |  |  | 50 to 1000 nM | 150 to 1000 nM | 10 to 500 nM | 
Cc1cc(Nc2cc(N3CCC3)nc(Sc3ccc(C(=O)NCc4ccccc4)cc3)n2)n[nH]1 [Compound 19] |  | 10 to 500 nM | > 1000 nM | 150 to 1000 nM |  | 
Cc1cc(Nc2cc(N3CCC3)nc(Sc3ccc(C(=O)Nc4ccccc4Cl)cc3)n2)[nH]n1 [Compound 48] |  |  | 50 to 1000 nM | 150 to 1000 nM | 10 to 500 nM | 
Cc1cc(Nc2cc(N3CCC3)nc(Sc3ccc(NC(=O)Cc4ccccc4)cc3)n2)n[nH]1 [Compound 35] |  | 500 to 2000 nM | 50 to 1000 nM | 50 to 150 nM |  | 
CC1=NN=C(Nc2cc(N3CCC3)nc(Sc3ccc(NC(=O)c4ccccc4Cl)cc3)n2)C1 [Compound 5] | 50 to 150 nM |  | 50 to 1000 nM |  | 10 to 500 nM | 30 to 200 nM

Source: patent US8637511B2, “Aminopyrimidines useful as kinase inhibitors” (Vertex Pharmaceuticals Incorporated, priority 2005, dated 2014)
